Assays:
[1] = tested on: MYB mRNA; test: Splicing RT-qPCR assay, MYB canonical (CJ) and alternative (AJ) junction mRNA; assay type: cell-based, human; conditions: Homo sapiens, 24 h, A673 or K562 cells, 24 hours compound treatment, RT-qPCR; for AC50: read-out: MYB AJ (AC50, increase in alternative junction mRNA); for IC50: read-out: MYB CJ (IC50, decrease in canonical junction mRNA)
Experimental: (§1) Compounds described herein were used to modulate RNA transcript abundance in cells. The expression of a target mRNA was measured by detecting the formation of an exon-exon junction in the canonical transcript (CJ). A compound mediated exon-inclusion event was detected by observing an increase in formation of a new junction with an alternative exon (AJ). Real-time qPCR assays were used to detect these splicing switches and interrogate the potency of various compounds towards different target genes. A high-throughput real time quantitative PCR (RT-qPCR) assay was developed to measure these two isoforms of the mRNA (CJ and AJ) for exemplary genes, such as HTT, SMN2, and MYB, together with a control housekeeping gene, GAPDH or GUSB or PPIA, used for normalization. Briefly, the A673 or K562 cell line was treated with various compounds described herein (e.g., compounds of Formula (I)). After treatment, the levels of the HTT, MYB, or SMN2 mRNA targets were determined from each sample of cell lysate by cDNA synthesis followed by qPCR.
(§2) • Cells-to-CT 1-step kit: ThermoFisher A25602, Cells-to-CT lysis reagent: ThermoFisher 4391851C, TaqMan™ Fast Virus 1-Step Master Mix: ThermoFisher 4444436 • GAPDH: VIC-PL, ThermoFisher 4326317E (Assay: Hs99999905_m1)—used for K562/suspension cell lines • GUSB: VIC-PL, ThermoFisher 4326320E (Assay: Hs99999908_m1)—used for K562/suspension cell lines • PPIA: VIC-PL, ThermoFisher 4326316E (Assay: Hs99999904_m1)—used for A673/adherent cell lines
(§3) The A673 cell line was cultured in DMEM with 10% FBS. Cells were diluted with full growth media and plated in a 96-well plate (15,000 cells in 100 ul media per well). The plate was incubated at 37° C. with 5% CO2 for 24 hours to allow cells to adhere. An 11-point 3-fold serial dilution of the compounds was made in DMSO then diluted in media in an intermediate plate. Compounds were transferred from the intermediate plate to the cell plate with the top dose at a final concentration of 10 uM in the well. Final DMSO concentration was kept at or below 0.25%. The cell plate was returned to the incubator at 37° C. with 5% CO2 for an additional 24 hours.
(§4) The K562 cell line was cultured in IMDM with 10% FBS. For K562, cells were diluted with full growth media and plated in either a 96-well plate (50,000 cells in 50 uL media per well) or a 384-well plate (8,000-40,000 cells in 45 uL media per well). An 11-point 3-fold serial dilution of the compounds were made in DMSO then diluted in media in an intermediate plate. Compound was transferred from the intermediate plate to the cell plate with the top dose at a final concentration of 10 uM in the well. Final DMSO concentration was kept at or below 0.25%. Final volume was 100 uL for 96-well plate and 50 uL for 384-well plate. The cell plate was then placed in an incubator at 37° C. with 5% CO2 for 24 hours.
(§5) The cells were then gently washed with 50 uL-100 uL cold PBS before proceeding to addition of lysis buffer. 30 uL-50 uL of room temperature lysis buffer with DNAse I (and optionally RNAsin) was added to each well. Cells were shaken/mixed thoroughly at room temperature for 5-10 minutes for lysis to take place and then 3 uL-5 uL of room temperature stop solution was added and wells were shaken/mixed again. After 2-5 minutes, the cell lysate plate was transferred to ice for RT-qPCR reaction setup. The lysates could also be frozen at −80° C. for later use.
(§6) In some cases, a direct lysis buffer was used. An appropriate volume of 3× lysis buffer (10 mM Tris, 150 mM NaCl, 1.5%-2.5% Igepal and 0.1-1 U/uL RNAsin, pH 7.4) was directly added to either K562 or A673 cells in media and mixed by pipetting 3 times. The plates were then incubated at room temperature with shaking/rocking for 20-50 minutes to allow for lysis to take place. After this time, the cell lysate plate was transferred to ice to set up for the RT-qPCR reactions. The lysates could also be frozen at −80° C. for later use. […]

[2] = tested on: HTT mRNA; test: Splicing RT-qPCR assay, HTT canonical (CJ) and alternative (AJ) junction mRNA; assay type: cell-based, human; conditions: Homo sapiens, A673 or K562 cells, 24 hours compound treatment; for IC50: 24 h, read-out: HTT CJ (IC50, decrease in canonical junction mRNA); for AC50: read-out: HTT AJ (AC50, increase in alternative junction mRNA)
Experimental: as §1, §2, §3, §4, §5, §6

| SMILES | IC50 [1] [µM] | IC50 [2] [µM] | AC50 [1] [µM] | AC50 [2] [µM] |
| --- | --- | --- | --- | --- |
| Cc1cc(NC(=O)c2ccc(N3CCNCC3)c3cn(C)nc23)c(O)c2cn(C)nc12 [Compound 484, N-(4-hydroxy-2,7-dimethylindazol-5-yl)-2-methyl-4-(piperazin-1-yl) indazole-7-carboxamide] | > 10 | > 10 | > 10 | > 10 |
| CCNC1CCN(c2ccc(C(=O)Nc3cn4cc(C)nc4c(F)c3OC)c3oc(C)cc23)CC1 [Compound 501, 4-(4-(ethylamino)piperidin-1-yl)-N-(8-fluoro-7-methoxy-2-methylimidazo[1,2-a]pyridin-6-yl)-2-methylbenzofuran-7-carboxamide 2,2,2-trifluoroacetate] | < 0.1 | < 0.1 | < 0.1 | < 0.1 |
| CCNC1CCN(c2ccc(C(=O)Nc3cc(F)c4nc(C)cn4c3)c3nn(CC)cc23)C1 (stereo not drawn) [Compound 396, 2-ethyl-4-[3-(ethylamino)pyrrolidin-1-yl]-N-{8-fluoro-2-methylimidazo[1,2-a]pyridin-6-yl}indazole-7-carboxamide] | 0.1 to 1 | > 10 | < 0.1 | > 10 |
| CN1CCN(c2ccc(C(=O)Nc3cc(F)c4nc(CO)oc4c3)c3nn(C)cc23)CC1 [Compound 494, N-[4-fluoro-2-(hydroxymethyl)-1,3-benzoxazol-6-yl]-2-methyl-4-(4-methylpiperazin-1-yl) indazole-7-carboxamide] | > 10 | > 10 | > 10 | > 10 |
| CCn1cc2c(N3CCC(NC4CC4)C3)ccc(C(=O)Nc3cc(F)c4nc(C)cn4c3)c2n1 (stereo not drawn) [Compound 398, 4-[3-(cyclopropylamino)pyrrolidin-1-yl]-2-ethyl-N-{8-fluoro-2-methylimidazo[1,2-a]pyridin-6-yl}indazole-7-carboxamide] | 0.1 to 1 | > 10 | 0.1 to 1 | > 10 |
| CCn1cc2c(N(C)C3CCNCC3)ccc(C(=O)Nc3cc(F)c4nc(C)cn4c3)c2n1 [Compound 545, 2-ethyl-N-(8-fluoro-2-methylimidazo[1,2-a]pyridin-6-yl)-4-(methyl(piperidin-4-yl)amino)-2H-indazole-7-carboxamide] | 0.1 to 1 | 1 to 10 | 0.1 to 1 | > 10 |
| CCn1cc2c(N3CCNC(CO)C3)ccc(C(=O)Nc3cc(F)c4nc(C)cn4c3)c2n1 (stereo not drawn) [Compound 403, 2-ethyl-N-{8-fluoro-2-methylimidazo[1,2-a]pyridin-6-yl}-4-[3-(hydroxymethyl)piperazin-1-yl]indazole-7-carboxamide] | 0.1 to 1 | 1 to 10 | 0.1 to 1 | 1 to 10 |
| Cc1cn2cc(NC(=O)c3ccc(N4CCNCC4)c4cn(C)nc34)nc(C#N)c2n1 [Compound 507, N-{8-cyano-2-methylimidazo[1,2-a]pyrazin-6-yl}-2-methyl-4-(piperazin-1-yl) indazole-7-carboxamide] | 0.1 to 1 | 1 to 10 | 0.1 to 1 | 1 to 10 |
| CCn1cc2c(N3CCC4(CCN4)CC3)ccc(C(=O)Nc3cc(F)c4nc(C)cn4c3)c2n1 [Compound 394, 4-{1,7-diazaspiro[3.5]nonan-7-yl}-2-ethyl-N-{8-fluoro-2-methylimidazo[1,2-a]pyridin-6-yl}indazole-7-carboxamide] | 0.1 to 1 | 1 to 10 | 0.1 to 1 | 1 to 10 |

Second part, led by results:

| IC50 [1] [µM] | IC50 [2] [µM] | SMILES | AC50 [1] [µM] | AC50 [2] [µM] |
| --- | --- | --- | --- | --- |
| 1 to 10 | > 10 | Cc1cn2cc(NC(=O)c3ccc(N4CC[C@@H](NC5(C#N)CC5)C4)c4cn(C)nc34)cc(F)c2n1 [Compound 596, 4-[(3R)-3-[(1-cyanocyclopropyl)amino]pyrrolidin-1-yl]-N-{8-fluoro-2-methylimidazo[1,2-a]pyridin-6-yl}-2-methylindazole-7-carboxamide] | 1 to 10 | > 10 |
| 0.1 to 1 | > 10 | CN[C@@H]1CCN(c2ccc(C(=O)Nc3cn4cc(C)nc4c(Cl)n3)c3nn(C)cc23)C1 [Compound 614] | 0.1 to 1 | > 10 |
| 0.1 to 1 | 0.1 to 1 | Cc1cn2cc(NC(=O)c3ccc(N4CC[C@@H](N5CCOCC5)C4)c4cn(C)nc34)cc(F)c2n1 [Compound 552, N-{8-fluoro-2-methylimidazo[1,2-a]pyridin-6-yl}-2-methyl-4-[(3R)-3-(morpholin-4-yl)pyrrolidin-1-yl]indazole-7-carboxamide] | 0.1 to 1 | 0.1 to 1 |
| < 0.1 | 0.1 to 1 | CCn1cc2c(N3CCC(C)(NC4CC4)CC3)ccc(C(=O)Nc3cc(F)c4nc(C)cn4c3)c2n1 [Compound 525, 4-[4-(cyclopropylamino)-4-methylpiperidin-1-yl]-2-ethyl-N-{8-fluoro-2-methylimidazo[1,2-a]pyridin-6-yl}indazole-7-carboxamide] | < 0.1 | 0.1 to 1 |
| 0.1 to 1 | 1 to 10 | CN[C@@H]1CCN(c2ccc(C(=O)Nc3cn4cc(C)nc4c(OC4CC4)n3)c3nn(C)cc23)C1 [Compound 626, N-{8-cyclopropoxy-2-methylimidazo[1,2-a]pyrazin-6-yl}-2-methyl-4-[(3R)-3-(methylamino)pyrrolidin-1-yl]indazole-7-carboxamide] | 0.1 to 1 | 1 to 10 |
| 0.1 to 1 | > 10 | CN[C@@H]1CCN(c2ccc(C(=O)Nc3cn4cc(C)nc4c(Oc4ccccc4)n3)c3nn(C)cc23)C1 [Compound 610, 2-methyl-N-{2-methyl-8-phenoxyimidazo[1,2-a]pyrazin-6-yl}-4-[(3R)-3-(methylamino)pyrrolidin-1-yl]indazole-7-carboxamide] | 0.1 to 1 | 1 to 10 |
| 0.1 to 1 | > 10 | CCn1cc2c(N3CCN[C@@H](C(C)C)C3)ccc(C(=O)Nc3cc(F)c4nc(C)cn4c3)c2n1 [Compound 535, 2-ethyl-N-{8-fluoro-2-methylimidazo[1,2-a]pyridin-6-yl}-4-[(3 S)-3-isopropylpiperazin-1-yl]indazole-7-carboxamide] | 0.1 to 1 | > 10 |
| 1 to 10 | 1 to 10 | CCn1cc2c(N3CCN4CCOC[C@@H]4C3)ccc(C(=O)Nc3cc(F)c4nc(C)cn4c3)c2n1 [Compound 538, 4-[(9aS)-hexahydro-1H-pyrazino[2,1-c][1,4]oxazin-8-yl]-2-ethyl-N-{8-fluoro-2-methylimidazo[1,2-a]pyridin-6-yl} indazole-7-carboxamide] | 1 to 10 | 1 to 10 |
| > 10 | > 10 | CCn1cc2c(N3CC[C@@H](NC)C3)cc(OC)c(C(=O)Nc3cc(F)c4nc(C)cn4c3)c2n1 [Compound 653] | > 10 | > 10 |

From patent US20250154169A1, “COMPOUNDS AND METHODS FOR MODULATING SPLICING” (REMIX THERAPEUTICS INC., priority 2021, published 2025)
